The values below are quoted from earlier work in US9060950B2, “Emetic embedded capsule” (Paul H. Rosenberg, Proximate Concepts, LLC., priority 2005, dated 2015).

Assay in data set [1]: not given
This is another data set of the same source.

Structures can show the parent of a compound that is named as a salt.

For `Cc1nnc2n1-c1ccc(Cl)cc1C(c1ccccc1Cl)=NC2` [Triazolm], the “amount ingested after which manifestations of overdose may occur” value (ingestion) is 2 mg.

For the compound `O.O.O.O.O.O.O.O=S(=O)([O-])[O-].[Zn+2]` [Zinc sulfate heptahydrate], the “amount ingested that causes emesis” value in data set [1] is 0.6 grams.

As to `CC(=O)Nc1ccc(O)cc1` [acetaminophen, Acetaminophen], the “amount ingested following which hepatic toxicity may occur” value (in vivo) is recorded as 7.5 grams. Moreover, the “amount ingested following which fatalities may occur” value (ingestion) is listed as 15 grams.

In the case of `CNCCC(Oc1ccc(C(F)(F)F)cc1)c1ccccc1` (centres unmarked) [fluoxetine hydrochloride, Fluoxetine hydrochloride], where the note is “ingestion”, the “ingested amount reported to have caused death” value was 520 mg.
